Here are results for 5 compounds from patent publication US8318809B2, “Compositions and methods for treating jellyfish stings” (priority 2006, dated 2012).

Molecules are shown by their SMILES. Counter-ions that a name gives are not always drawn. A value given as a limit tells only on which side of the number the result lay.

For series [1], the system named is sea wasp (Chiropsalmus quadumanus) stings. The experiment in a line: Jellyfish sting test on inner forearm of human test subjects, sea wasp. Type of series: in vivo. The settings on record: for maintenance of relief: 5% lidocaine in 80:20 water:propylene glycol, 5% benzocaine in 90:10 propylene glycol:acetone, control sites decreased after 2-3 h; for red rash at sting site: 5% lidocaine or 5% benzocaine formulations vs other treatments; for time to sting relief: 10% lidocaine in 50:50 water:propylene glycol, 10% benzocaine in 90:10 propylene glycol:acetone. The text has this:
These are the two most common types of stinging jellies that occur with frequency and/or regularity in normal swimming waters on the USA east coast north of Cape Canaveral.
(§1) Living healthy specimens were captured locally using trawls and dip-nets. They were maintained in flowing seawater aquariums (ca. 500 liters) for days-weeks; sea nettles maintained for long periods were fed live minnows (mummichugs).
Healthy, actively swimming jellyfish were used in all examples, and the same procedure was applied in all cases.
Stings from sea wasps were induced by manually holding a live specimen by its bell, and dragging the tentacles across the inner forearm of the test subject. […] Stings from the larger sea nettles were induced using tweezers to manually remove tentacles from living specimens and dragging them across the inner lower forearms of test subjects.
(§2) Products were applied to sting sites within 1-2 minutes unless otherwise noted below. […] Thus one forearm was used for each treatment effect, and each forearm included two sting sites: one received a treatment while the other served as an untreated control. Tests were either conducted simultaneously in duplicate using two subjects, or sequentially several hours apart using the same subject.

The conditions of series [2]: stated as known; cited from earlier work.
A further series has as its system tongue. Briefly: Minimum response time to topically applied anesthetic on the tongue. In kind it is in vivo, human. The settings on record: Example 5; 5 mg of pure compound applied to the tongue. How it is done: Two formulations were tested in the present example to test the minimum response time of the human body to topically applied lidocaine and benzocaine:
5 mg of pure benzocaine applied to the tongue

Another series can be described thus: Solubility in water. The settings on record: Example 13 remark. In kind it is physicochemical.
In series [3] the test system is jellyfish stings. The experiment in a line: Jellyfish sting test, jellyfish species not stated. In kind it is in vivo, human. The settings on record: Example 20; 4% lidocaine hydrochloride in water.
Description: […] Healthy, actively swimming jellyfish were used in all examples, and the same procedure was applied in all cases. The same human test subjects were used in all experiments, in order to have continuity and be able to qualitatively compare treatment effects among experimental dates.
(§3) Stings from sea wasps were induced by manually holding a live specimen by its bell, and dragging the tentacles across the inner forearm of the test subject. Sea-wasps caused immediate stinging sensations. Stings from the larger sea nettles were induced using tweezers to manually remove tentacles from living specimens and dragging them across the inner lower forearms of test subjects. Sea-nettle stings were of the same or somewhat more intensity as those of sea wasps, but were not felt until about 15 s after contact, perhaps because the tentacles have visibly thicker gelatinous coatings.
as §2

The subject of the next series is chigger bites. Briefly: Chigger bite treatment, one subject. Type of series: in vivo, human. The settings on record: Example 22; two bites per treatment; lidocaine as 4% solution in water. The text has this: Subject received 6 chigger bites on inner thigh area. Subject applied the formulation to two of the chigger bites, treated two others with Chigger Rid®, a drug store product, and applied clear finger nail polish, a home remedy, to the final two bites.

Series [4] has as its system jellyfish stings. The experiment in a line: Beach surveys of beachgoers stung by a jellyfish. Type of series: in vivo, human. How it is done:
The beach surveys were conducted on beachgoers that stated they had been stung by a jellyfish. All participants voluntarily filled out an 8 question survey.
Locations: Tybee Island, Ga., Saint Simons Island, Ga., Hilton Head, S.C., Jacksonville beach, Fla., Daytona beach, Fla.
Time to application: Varied based on the person surveyed. Average times from sting to treatment ranged from 5 to 15 minutes.
Application to relief: Most respondents noted that they began to feel relief at the 1 minute mark. Based on an average level of affected area (less than 10% body coverage) the respondents noted virtually all the pain subsided by the 5 minute mark. (Most of the respondents who noted “some relief” departed within 2 minutes, which is the approximately time it took them to fill out the survey. Some of these respondents later returned to report total relief, but this is not shown in the data below). The results are presented in Table 3 and FIG. 2, below (total respondents: 232).

The test system of series [5] is nematocysts of sea nettle tentacles. The experiment in a line: Microscopy observations of nematocyst responses to product exposure. The settings on record: Example 11; pipetted onto tentacles in seawater, viewed at 60×; lidocaine as 10% solution in seawater.
Description: Tentacles were removed using tweezers from an actively swimming sea nettle, placed in a glass Petri dish in seawater collected from the jellyfish tank (same salinity), and viewed at 60× under a zoom stereomicroscope while various liquid chemicals were pipetted directly onto the tentacles.
Series [6] has as its system sea nettle (hrysaora quinquecirrha) stings. Briefly: Jellyfish sting test on inner forearm of human test subjects, sea nettle. Type of series: in vivo.
Description: Two genera of jellyfish were used in examples 2-19 described below: Chiropsalmus quadumanus, a cubomedusa and member of the Scyphozoa, also known as the sea wasp; and another scyphozoan jellyfish, hrysaora quinquecirrha, commonly called the sea nettle. These are the two most common types of stinging jellies that occur with frequency and/or regularity in normal swimming waters on the USA east coast north of Cape Canaveral.
as §1
For examples 3-19, with the exception of the commercially available spray products and the meat tenderizer paste solution, all of the other test solutions were in liquid form and were applied using a one milliliter pipetter and sterile tips.
For examples 3-19 below, the following general procedures were followed. Healthy, actively swimming jellyfish were used in all examples, and the same procedure was applied in all cases. The same human test subjects were used in all experiments, in order to have continuity and be able to qualitatively compare treatment effects among experimental dates.
as §3
Products were applied to sting sites within 1-2 minutes unless otherwise noted below. […] Thus one forearm was used for each treatment effect, and each forearm included two sting sites: one received a treatment while the other served as an untreated control. […]

In a further series the test system is fire ant bites. The experiment in a line: Fire ant bite treatment, one subject. In kind it is in vivo, human. The settings on record: Example 23. How it is done:
The subject for this example had substantial experience with fire ant bites, with general symptoms of blistering, itching, pain associated with the bites. […] Subject received 7 fire ant bites while gardening outside. Subject applied the formulation to the seven bites approximately 15 minutes after the bites occurred.

Where [7] appears, read: 4% Lidocaine and water, pump or trigger spray, total respondents 232.

On to `N` [Ammonia], for which the “treatment effect on sting pain” value in series [1] (Example 3, sea wasps 2″ bell, meat tenderizer paste, ammonia and vinegar store-bought full strength, vs untreated control site) is reported as “increased the initial pain”.
As for `CCOC(=O)c1ccc(N)cc1` [benzocaine], the solubility in water entry in series [2] is recorded as “sparingly soluble in water”. Besides, the “onset of localized numbness” value with tongue is 30 s. The dissolves in water result in “Solubility in water” was “does not dissolve in water”. Further, the maintenance of relief entry in [1] (Example 3) is “maintained until the stinging sensation eventually decreased in control sites”. Also, in [1] (Example 3, sea wasps 2″ bell), the “red rash at sting site” value was “substantially reduced”. The “time to sting relief” value in series [1] (Example 4, sea wasp 3″ bell) was 60 to 90 s.
Turning to `CCN(CC)CC(=O)Nc1c(C)cccc1C` [lidocaine hydrochloride], the “time to initial pain relief after application” value in the series on jellyfish stings [3] was “around one”.
Regarding `CCN(CC)CC(=O)Nc1c(C)cccc1C` [lidocaine], the “itching of chigger bites after treatment” value in the series on chigger bites is given as “ceased itching within minutes of application with no further symptoms”. Besides, the “onset of localized numbness” value with tongue turned out to be 30 s. The maintenance of relief result in series [1] (Example 3) is reported as “maintained until the stinging sensation eventually decreased in control sites”. In series [1] (Example 3, sea wasps 2″ bell), the “red rash at sting site” value was “substantially reduced”. Besides, in [1] (Example 4, 10% lidocaine formulation compared with 10% benzocaine formulation), the “redness at the sting site” value is given as “appeared to reduce redness at the sting site more than the benzocaine formulation”. Further, in series [1] (Example 4, sea wasp 3″ bell), the “time to sting relief” value is 30 to 60 s. Moreover, the rash result in series [1] (Example 6, 10% compared to 5% lidocaine in 80:20 water:propylene glycol) is on record as “somewhat less pronounced”. For the same compound, the pain relief result in [1] (Example 6, both 5% and 10% lidocaine in 80:20 water:propylene glycol, sea wasp 3″ bell, compared to no treatment) is on record as “substantial pain relief”. Further, the “time to substantial relief” value in [1] (Example 7, 10% lidocaine in 80:20 water:propylene glycol without acetic acid, sea wasps 2″ bell, untreated stinging lasted about 30 minutes) was “about 1 minute”. In series [1] (Example 8, 10% lidocaine in 80:20 water:propylene glycol applied 5 min after sting), the “relief after delayed application” value was “provided relief as though applied immediately”. The time to relief entry in [1] (Example 8, 10% lidocaine in 80:20 water:propylene glycol applied immediately, sea wasp 2″ bell) is reported as “approximately 1 minute”. In addition, the “time at which most respondents began to feel relief” value in the series on jellyfish stings [4] (4% Lidocaine and water spray, 5 to 15 minutes from sting to treatment) is 1 min. In addition, in the series on jellyfish stings [4] (4% Lidocaine and water spray, affected area less than 10% body coverage), the “time by which virtually all the pain subsided” value is no more than 5 min. Moreover, in the series on jellyfish stings [4] (setting [7]), the “number of respondents: Much relief” value amounted to 128, the “number of respondents: No relief” value was 0, the “number of respondents: Some relief” value was 32 and the “number of respondents: Total relief” value amounted to 72. Besides, in series [5], the nematocyst firing result is “did not cause nematocysts from a new tentacle to fire”. Besides, in [6] (Example 9, 10% lidocaine in water only compared with 10% lidocaine in 80:20 water:propylene glycol, sea nettle 6″ bell), the “performance as judged by the test subjects” value was “slightly superior”. Also, the “acted faster by” value in series [6] (Example 16, 15% lidocaine in water compared with 10% lidocaine in water, sea nettle 4″ bell) lay in the range of 10 to 15 s. Moreover, in the series on fire ant bites (4% lidocaine and water applied approximately 15 minutes after the bites), the blister formation entry is “typical blisters did not form”. Moreover, the “relief from pain and itching” value with fire ant bites (4% lidocaine and water applied to 7 bites approximately 15 minutes after the bites) was “complete relief from pain and itching”.
On to `NC(N)=O` [urea], for which the “effect on the soothing effect of lidocaine” value in series [6] (Example 12, 10% urea added to 10% lidocaine in water) was “did not appear to help or impede”.
